The source made the active and inactive calls. The calls are words filed in the database; no cut-off is given here.
Assays:
[1] = tested on: PBMC; experiment: Induction of IL12 secretion in human PBMC after 24 hrs by Luminex Multiplex assay; assay type: functional, cell-based
[2] = Stability in 1% human serum assessed as full length product after 10 mins; assay type: ADME, cell-free; settings: read-out: Stability
[3] = tested on: Mus musculus; experiment: Induction of cytokine secretion in C57BL/6 mouse plasma at 100 mg/kg, sc by Luminex Multiplex assay; assay type: functional, organism-based; set-up: dose 100 mg/kg
[4] = target: T1, Toll-like receptor 8 (Homo sapiens) (UniProt Q9NR97); experiment: Activation of human TLR8 expressed in HEK293 cells assessed as increase in NF-kappaB activation at 100 ug/ml by SEAP assay; assay type: cell-based
T1 sequence (whole entry): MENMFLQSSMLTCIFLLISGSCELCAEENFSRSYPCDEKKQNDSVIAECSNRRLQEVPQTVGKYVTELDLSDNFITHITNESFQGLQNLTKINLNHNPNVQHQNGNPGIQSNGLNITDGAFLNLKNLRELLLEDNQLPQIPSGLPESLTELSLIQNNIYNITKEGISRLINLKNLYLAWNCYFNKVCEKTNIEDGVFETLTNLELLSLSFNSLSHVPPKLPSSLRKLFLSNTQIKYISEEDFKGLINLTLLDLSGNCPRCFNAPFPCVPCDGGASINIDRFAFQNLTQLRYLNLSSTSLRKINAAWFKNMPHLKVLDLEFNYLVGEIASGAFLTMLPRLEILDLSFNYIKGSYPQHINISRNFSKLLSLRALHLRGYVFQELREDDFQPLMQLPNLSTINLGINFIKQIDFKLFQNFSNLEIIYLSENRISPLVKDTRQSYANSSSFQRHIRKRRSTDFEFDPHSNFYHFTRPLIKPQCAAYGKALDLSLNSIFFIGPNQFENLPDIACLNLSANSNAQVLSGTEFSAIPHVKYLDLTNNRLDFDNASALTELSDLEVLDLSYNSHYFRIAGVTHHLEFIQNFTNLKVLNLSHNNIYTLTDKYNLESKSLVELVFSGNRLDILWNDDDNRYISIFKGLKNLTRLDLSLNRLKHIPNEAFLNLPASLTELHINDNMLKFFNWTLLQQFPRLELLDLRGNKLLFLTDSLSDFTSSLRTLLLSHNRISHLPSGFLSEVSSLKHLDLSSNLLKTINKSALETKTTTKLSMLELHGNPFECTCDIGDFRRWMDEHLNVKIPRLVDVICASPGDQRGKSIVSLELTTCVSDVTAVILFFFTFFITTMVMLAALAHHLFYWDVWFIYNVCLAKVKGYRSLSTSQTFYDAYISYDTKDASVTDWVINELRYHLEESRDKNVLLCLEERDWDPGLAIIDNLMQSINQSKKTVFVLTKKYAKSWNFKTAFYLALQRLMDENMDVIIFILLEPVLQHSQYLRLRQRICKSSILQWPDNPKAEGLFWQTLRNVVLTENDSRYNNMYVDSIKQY

[5] = tested on: PBMC; experiment: Induction of IL10 secretion in human PBMC after 24 hrs by Luminex Multiplex assay; assay type: functional, cell-based
[6] = tested on: PBMC; experiment: Induction of IL1-beta secretion in human PBMC after 24 hrs by Luminex Multiplex assay; assay type: functional, cell-based
[7] = tested on: PBMC; experiment: Induction of IL2R secretion in human PBMC after 24 hrs by Luminex Multiplex assay; assay type: functional, cell-based
[8] = tested on: Mus musculus; experiment: Induction of chemokine secretion in C57BL/6 mouse plasma at 100 mg/kg, sc by Luminex Multiplex assay; assay type: functional, organism-based; set-up: dose 100 mg/kg
[9] = tested on: PBMC; experiment: Induction of IFNalpha secretion in human PBMC after 24 hrs by Luminex Multiplex assay; assay type: functional, cell-based
[10] = target: T2, Toll-like receptor 7 (Homo sapiens) (UniProt Q9NYK1); experiment: Activation of human TLR7 expressed in HEK293 cells assessed as increase in NF-kappaB activation at 100 ug/ml by SEAP assay; assay type: cell-based
T2 sequence (whole entry): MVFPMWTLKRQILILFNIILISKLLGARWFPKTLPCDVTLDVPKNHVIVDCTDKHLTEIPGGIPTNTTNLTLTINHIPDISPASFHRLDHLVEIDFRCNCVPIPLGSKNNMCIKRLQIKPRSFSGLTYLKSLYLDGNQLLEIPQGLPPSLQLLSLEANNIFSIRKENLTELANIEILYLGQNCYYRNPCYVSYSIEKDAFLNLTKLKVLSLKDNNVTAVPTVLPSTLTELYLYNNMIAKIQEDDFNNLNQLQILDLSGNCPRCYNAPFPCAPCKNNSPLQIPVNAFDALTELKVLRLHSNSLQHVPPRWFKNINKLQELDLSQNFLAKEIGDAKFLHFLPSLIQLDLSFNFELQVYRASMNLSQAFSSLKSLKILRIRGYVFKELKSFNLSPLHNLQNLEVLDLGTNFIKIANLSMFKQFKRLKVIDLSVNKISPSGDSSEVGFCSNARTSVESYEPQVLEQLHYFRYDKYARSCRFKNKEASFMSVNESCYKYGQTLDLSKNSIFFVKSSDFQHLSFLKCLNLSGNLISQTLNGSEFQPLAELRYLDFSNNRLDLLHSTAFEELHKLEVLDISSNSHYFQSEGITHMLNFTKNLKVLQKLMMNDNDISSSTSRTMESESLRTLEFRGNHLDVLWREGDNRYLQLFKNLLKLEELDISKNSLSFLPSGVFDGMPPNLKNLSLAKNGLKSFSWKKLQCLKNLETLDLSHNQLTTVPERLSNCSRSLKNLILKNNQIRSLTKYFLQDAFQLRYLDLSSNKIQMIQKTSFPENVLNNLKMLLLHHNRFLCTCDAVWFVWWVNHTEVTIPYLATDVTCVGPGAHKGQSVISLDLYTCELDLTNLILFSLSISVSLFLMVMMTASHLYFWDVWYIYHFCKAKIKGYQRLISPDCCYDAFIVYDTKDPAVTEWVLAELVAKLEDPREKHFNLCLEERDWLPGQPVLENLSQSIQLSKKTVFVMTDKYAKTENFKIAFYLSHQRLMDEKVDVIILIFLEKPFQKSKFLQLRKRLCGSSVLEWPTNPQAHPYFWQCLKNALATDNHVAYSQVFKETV

[11] = tested on: Mus musculus; experiment: Induction of IL12 secretion in sc dosed C57BL/6 mouse serum after 2 hrs by ELISA; assay type: functional, organism-based
[12] = tested on: PBMC; experiment: Induction of IFN-gamma secretion in human PBMC after 24 hrs by Luminex Multiplex assay; assay type: functional, cell-based
[13] = tested on: Cynomolgus monkey; experiment: Increase in CD69 expression on CD16+ NK cells in cynomolgus monkey at 5 mg/kg, sc after 24 hrs by flow cytometry relative to control; assay type: functional, organism-based; set-up: dose 5 mg/kg; settings: Macaca fascicularis
[14] = tested on: Cynomolgus monkey; experiment: Increase in CD69 expression on CD3+ lymphocytes in cynomolgus monkey at 5 mg/kg, sc after 24 hrs by flow cytometry relative to control; assay type: functional, organism-based; set-up: dose 5 mg/kg; settings: Macaca fascicularis
[15] = tested on: Cynomolgus monkey; experiment: Increase in CD69 expression on CD14+ monocytes in cynomolgus monkey at 5 mg/kg, sc after 24 hrs by flow cytometry relative to control; assay type: functional, organism-based; set-up: dose 5 mg/kg; settings: Macaca fascicularis
[16] = tested on: Cynomolgus monkey; experiment: Elevation of IFNalpha in cynomolgus monkey plasma at 5 mg/kg, sc after 24 hrs; assay type: functional, organism-based; set-up: dose 5 mg/kg; settings: Macaca fascicularis
[17] = tested on: Cynomolgus monkey; experiment: Induction of immune response in cynomolgus monkey assessed as increase in number of peripheral blood neutrophils at 5 mg/kg, sc within 24 hrs; assay type: functional, organism-based; set-up: dose 5 mg/kg; settings: Macaca fascicularis
[18] = tested on: Cynomolgus monkey; experiment: Elevation of IP10 in cynomolgus monkey plasma at 5 mg/kg, sc after 24 hrs; assay type: functional, organism-based; set-up: dose 5 mg/kg; settings: Macaca fascicularis
[19] = tested on: Cynomolgus monkey; experiment: Induction of immune response in cynomolgus monkey assessed as increase in number of peripheral blood monocytes at 5 mg/kg, sc within 24 hrs; assay type: functional, organism-based; set-up: dose 5 mg/kg; settings: Macaca fascicularis

remaining at 10 min [2] [%]	Activity [4]	Activity [10]	Compound	Activity [1]	Activity [3]	Activity [5]	Activity [6]	Activity [7]	Activity [8]	Activity [9]	Activity [11]	Activity [12]	Activity [13]	Activity [14]	Activity [15]	Activity [16]	Activity [17]	Activity [18]	Activity [19]
74	Active	inactive	Nc1ccn([C@@H]2O[C@H](COP(O)(=S)O[C@H]3[C@@H](O)[C@H](n4cnc5c(=O)[nH]c(N)nc54)O[C@@H]3COP(O)(=S)O[C@H]3[C@@H](O)[C@H](n4ccc(=O)[nH]c4=O)O[C@@H]3CO)[C@@H](OP(O)(=S)OC[C@H]3O[C@@H](n4ccc(=O)[nH]c4=O)[C@H](O)[C@@H]3OP(O)(=S)OC[C@H]3O[C@@H](n4cnc5c(=O)[nH]c(N)nc54)[C@H](O)[C@@H]3OP(O)(=S)OC[C@H]3O[C@@H](n4ccc(N)nc4=O)[C@H](O)[C@@H]3OP(O)(=S)OC[C@H]3O[C@@H](n4ccc(=O)[nH]c4=O)[C@H](O)[C@@H]3OP(O)(=S)OC[C@H]3O[C@@H](n4ccc(=O)[nH]c4=O)[C@H](O)[C@@H]3OP(O)(=S)OC[C@H]3O[C@@H](n4cnc5c(=O)[nH]c(N)nc54)[C@H](O)[C@@H]3OP(O)(=S)OC[C@H]3O[C@@H](n4ccc(=O)[nH]c4=O)[C@H](O)[C@@H]3OP(O)(=S)OC[C@H]3O[C@@H](n4cnc5c(=O)[nH]c(N)nc54)[C@H](O)[C@@H]3OP(O)(=S)OCC(O)COP(O)(=S)O[C@H]3[C@@H](O)[C@H](n4cnc5c(=O)[nH]c(N)nc54)O[C@@H]3COP(O)(=S)O[C@H]3[C@@H](O)[C@H](n4ccc(=O)[nH]c4=O)O[C@@H]3COP(O)(=S)O[C@H]3[C@@H](O)[C@H](n4cnc5c(=O)[nH]c(N)nc54)O[C@@H]3COP(O)(=S)O[C@H]3[C@@H](O)[C@H](n4ccc(=O)[nH]c4=O)O[C@@H]3COP(O)(=S)O[C@H]3[C@@H](O)[C@H](n4ccc(=O)[nH]c4=O)O[C@@H]3COP(O)(=S)O[C@H]3[C@@H](O)[C@H](n4ccc(N)nc4=O)O[C@@H]3COP(O)(=S)O[C@H]3[C@@H](O)[C@H](n4cnc5c(=O)[nH]c(N)nc54)O[C@@H]3COP(O)(=S)O[C@H]3[C@@H](O)[C@H](n4ccc(=O)[nH]c4=O)O[C@@H]3COP(O)(=S)O[C@H]3[C@@H](O)[C@H](n4ccc(N)nc4=O)O[C@@H]3COP(O)(=S)O[C@H]3[C@@H](O)[C@H](n4cnc5c(=O)[nH]c(N)nc54)O[C@@H]3COP(O)(=S)O[C@H]3[C@@H](O)[C@H](n4ccc(=O)[nH]c4=O)O[C@@H]3CO)[C@H]2O)c(=O)n1 (stereo partly drawn)	Dose-dependent effect	inactive	Dose-dependent effect	Dose-dependent effect	Dose-dependent effect	inactive	Dose-dependent effect	inactive	Dose-dependent effect	–	–	–	–	–	–	–
78	Active	inactive	Nc1ccn([C@@H]2O[C@H](COP(O)(=S)O[C@H]3[C@@H](O)[C@H](n4cnc5c(=O)[nH]c(N)nc54)O[C@@H]3COP(O)(=S)O[C@H]3[C@@H](O)[C@H](n4ccc(=O)[nH]c4=O)O[C@@H]3COCCCO)[C@@H](OP(O)(=S)OC[C@H]3O[C@@H](n4ccc(=O)[nH]c4=O)[C@H](O)[C@@H]3OP(O)(=S)OC[C@H]3O[C@@H](n4cnc5c(=O)[nH]c(N)nc54)[C@H](O)[C@@H]3OP(O)(=S)OC[C@H]3O[C@@H](n4ccc(N)nc4=O)[C@H](O)[C@@H]3OP(O)(=S)OC[C@H]3O[C@@H](n4ccc(=O)[nH]c4=O)[C@H](O)[C@@H]3OP(O)(=S)OC[C@H]3O[C@@H](n4ccc(=O)[nH]c4=O)[C@H](O)[C@@H]3OP(O)(=S)OC[C@H]3O[C@@H](n4cnc5c(=O)[nH]c(N)nc54)[C@H](O)[C@@H]3OP(O)(=S)OC[C@H]3O[C@@H](n4ccc(=O)[nH]c4=O)[C@H](O)[C@@H]3OP(O)(=S)OC[C@H]3O[C@@H](n4cnc5c(=O)[nH]c(N)nc54)[C@H](O)[C@@H]3OP(O)(=S)OCC(O)COP(O)(=S)O[C@H]3[C@@H](O)[C@H](n4cnc5c(=O)[nH]c(N)nc54)O[C@@H]3COP(O)(=S)O[C@H]3[C@@H](O)[C@H](n4ccc(=O)[nH]c4=O)O[C@@H]3COP(O)(=S)O[C@H]3[C@@H](O)[C@H](n4cnc5c(=O)[nH]c(N)nc54)O[C@@H]3COP(O)(=S)O[C@H]3[C@@H](O)[C@H](n4ccc(=O)[nH]c4=O)O[C@@H]3COP(O)(=S)O[C@H]3[C@@H](O)[C@H](n4ccc(=O)[nH]c4=O)O[C@@H]3COP(O)(=S)O[C@H]3[C@@H](O)[C@H](n4ccc(N)nc4=O)O[C@@H]3COP(O)(=S)O[C@H]3[C@@H](O)[C@H](n4cnc5c(=O)[nH]c(N)nc54)O[C@@H]3COP(O)(=S)O[C@H]3[C@@H](O)[C@H](n4ccc(=O)[nH]c4=O)O[C@@H]3COP(O)(=S)O[C@H]3[C@@H](O)[C@H](n4ccc(N)nc4=O)O[C@@H]3COP(O)(=S)O[C@H]3[C@@H](O)[C@H](n4cnc5c(=O)[nH]c(N)nc54)O[C@@H]3COP(O)(=S)O[C@H]3[C@@H](O)[C@H](n4ccc(=O)[nH]c4=O)O[C@@H]3COCCCO)[C@H]2O)c(=O)n1 (stereo partly drawn)	Dose-dependent effect	–	Dose-dependent effect	Dose-dependent effect	Dose-dependent effect	–	Dose-dependent effect	–	Dose-dependent effect	Active	Active	Active	Active	Active	Active	Active

Source: ChEMBL document CHEMBL1156502, “Stabilized immune modulatory RNA compounds as agonists of Toll-like receptors 7 and 8” (Proc Natl Acad Sci U S A, 2007)
